Data on ten molecules can be found in patent US7772221B2, “Diaminopropane derived macrocycles as inhibitors of β amyloid production” (Bristol-Meyers Squibb Company, priority 2007, dated 2010).

A word on the IC50: it is the midpoint of a concentration-inhibition curve.

Where only a bound is given, the exact number is not on record here.

The target of this assay is T1, BACE1 enzyme (Homo sapiens, UniProt P56817).
T1 construct: endogenous in cells; washed 48,000 x g membrane pellet / cell homogenate
T1 sequence (P56817 46-501): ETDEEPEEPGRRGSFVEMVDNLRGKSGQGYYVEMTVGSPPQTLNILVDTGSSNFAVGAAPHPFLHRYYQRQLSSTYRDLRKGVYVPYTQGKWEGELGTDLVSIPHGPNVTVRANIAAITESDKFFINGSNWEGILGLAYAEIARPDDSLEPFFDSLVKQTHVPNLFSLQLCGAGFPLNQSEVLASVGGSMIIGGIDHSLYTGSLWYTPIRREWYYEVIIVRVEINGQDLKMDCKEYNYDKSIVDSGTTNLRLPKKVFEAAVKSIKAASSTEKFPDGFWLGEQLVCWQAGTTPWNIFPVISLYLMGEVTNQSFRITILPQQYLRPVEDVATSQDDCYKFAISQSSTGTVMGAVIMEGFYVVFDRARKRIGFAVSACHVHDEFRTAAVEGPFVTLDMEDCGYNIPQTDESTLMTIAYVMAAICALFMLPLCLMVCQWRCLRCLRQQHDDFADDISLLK
Put plainly: Radioligand displacement assay with a radiolabeled BACE inhibitor. The note with it: HEK293-9B.A1 cell homogenate overexpressing BACE1, 1 nM radioligand, pH 5.0, 1.5 hr at 25° C.; read-out: Activity Rating (activity based on IC50 values). In kind it is binding. From the text: There are a number of methods by which inhibitors of the BACE enzyme can be identified experimentally. The enzyme can be obtained from membrane samples from natural tissues or cultured cells or can be expressed recombinantly in a host cell by well known methods of molecular biology. The whole enzyme or a portion thereof can be expressed, for example, in bacterial, insect or mammalian cells to obtain a catalytically active enzyme species. The enzymatic activity and/or ligand binding capability of the enzyme can be assessed within these membrane samples, or the enzyme can be purified to varying extents. As an illustrative example, the nucleic acid sequence encoding the pro and catalytic domains of human BACE can be appended on the 5′ end with an untranslated and signal sequence from the gene for acetylcholinesterase, and on the 3′ end with a sequence encoding a poly-histidine tag. This cDNA can then be expressed in Drosophila melanogaster S2 cells in which the signal and pro sequences of the transcribed/translated protein are removed by cellular proteases and the catalytic domain, appended by a C-terminal poly-histidine tag, is secreted out into the cellular medium. The enzyme can then be purified from the culture medium by nickel affinity chromatography by methods well known to those trained in the art [Mallender, W. et al., “Characterization of recombinant, soluble beta-secretase from an insect cell expression system.” Mol. Pharmacol. 2001, 59: 619-626]. Similar strategies for expressing and purifying various forms of BACE in bacterial, mammalian and other cell types would be known to one skilled in the art. A preferred method for determining the potency of a test compound in binding to the BACE enzyme is by monitoring the displacement of a suitable radioligand.
Radioligand displacement assays with a radiolabeled BACE inhibitor (WO 2004 013098, compound 3, where the methoxy group is substituted for C(^3H)3) were carried out using standard methods (Keen, M. (1999) in Receptor Binding Techniques (Walker, J. M. ed) p. 106 Humana Press, Totowa, N.J.). The HEK293-9B.A1 cell line, which overexpresses the BACE1 enzyme, was derived from HEK293 cells (Simmons, N. L. (1990) A cultured human renal epithelioid cell line responsive to vasoactive intestinal peptide. Exp. Physiol. 75:309-19.) by RAGE™ (Harrington, J. J. et al. (2001) Creation of genome-wide protein expression libraries using random activation of gene expression. Nat. Biotechnol. 19:440-5.; U.S. Pat. Nos. 6,410,266 and 6,361,972). T225 flask cultures of HEK293-9B.A1 were grown to 80% confluency in DMEM supplemented with 2 mM L-glutamine, 10 μg/mL penicillin, 10 μg/mL streptomycin, 3 μg/mL puromycin, 100 nM methotrexate, and 10% fetal bovine serum (Invitrogen, Carlsbad, Calif.), harvested, and resuspended at 2×10^8 cells per 10 mL of lysis buffer consisting of 50 mM HEPES pH 7.0 containing a protease inhibitor cocktail of AEBSF 104 μM, aprotinin 80 nM, leupeptin 2 μM, bestatin 4 μM, pepstatin A 1.5 μM, and E-64 1.4 μM (0.1% of protease inhibitor cocktail P8340, Sigma-Aldrich, St. Louis, Mo.) at 4° C. The resuspended cells were homogenized using a Polytron (Brinkman, Westbury, N.Y.) at setting 6 for 10 sec., then centrifuged at 48,000×g for 10 min. The resulting pellet was washed by repeating the resuspension, homogenization and centrifugation steps. The final pellet was resuspended in buffer at 4° C. to yield a total protein concentration of 5 mg/mL, then aliquots were frozen in liquid nitrogen for further storage at −70° C. Immediately before carrying out a binding assay, an aliquot of cell homogenate was thawed and diluted to a concentration of 100 μg/mL in assay buffer consisting of 50 mM HEPES pH 5.0 and 0.1% CHAPSO. […]
A general note: In a radioligand displacement assay an active substance lowers the binding of a labelled ligand.
On to `COc1ccc2c(c1)[C@@H]1C[C@H]2NCCCC[C@H](N(C)S(=O)(=O)CCC(F)(F)F)C(=O)N[C@@H](Cc2ccccc2)[C@H](O)CN1` (single isomer, unassigned) [Example 52], for which the IC50 was in the range of 10 to 500 nM. The value for `CC(C)CCc1ccc2c(c1)[C@@H]1C[C@H]2OCC=CCCCC(=O)N[C@@H](Cc2cc(F)cc(F)c2)[C@H](O)CN1` [Example 69, (1S,4R,5S,15R)-5-(3,5-difluoro-benzyl)-4-hydroxy-19-(3-methyl-butyl)-14-oxa-2,6-diaza-tricyclo[13.6.1.0^16,21]docosa-11,16(21),17,19-tetraen-7-one] was 10 to 500 nM; that for `CCCC(CCC)C(=O)N(C)[C@H]1CC=CCOCCC(c2cccc(OC)c2)NC[C@@H](O)[C@H](Cc2ccccc2)NC1=O` (stereo partly drawn) [Example 19, N-((7R,8S,11S)-8-benzyl-7-hydroxy-4-(3-methoxyphenyl)-10-oxo-1-oxa-5,9-diazacyclopentadec-13-en-11-yl)-N-methyl-2-propylpentanamide] was over 500 nM. The value for `CC(C)Oc1ccc2c(c1)[C@@H]1C[C@H]2OCC=CCCCC(=O)N[C@@H](Cc2cc(F)cc(F)c2)[C@H](O)CN1` [Example 78, (1S,4R,5S,15R)-5-(3,5-difluoro-benzyl)-4-hydroxy-19-isopropoxy-14-oxa-2,6-diaza-tricyclo[13.6.1.0^16,21]docosa-11,16(21),17,19-tetraen-7-one] was under 10 nM; that for `COc1ccc2c(c1)[C@@H]1CC2N(C)CCCCC[C@H](N(C)S(=O)(=O)CCC(F)(F)F)C(=O)N[C@@H](Cc2ccccc2)[C@H](O)CN1` [Example 56, 3,3,3-trifluoro-propane-1-sulfonic acid ((1S,4R,5S,8S)-5-benzyl-4-hydroxy-19-methoxy-14-methyl-7-oxo-2,6,14-triaza-tricyclo[13.6.1.0^16,21]docosa-16(21),17,19-trien-8-yl)-methyl-amide] was 10 to 500 nM; that for `CCOc1ccsc1C(=O)N(C)[C@H]1CC=CCO[C@@H]2C[C@H](NC[C@@H](O)[C@H](Cc3ccccc3)NC1=O)c1cc(OC)ccc12` [Example 20, 3-ethoxy-thiophene-2-carboxylic acid ((1S,4R,5S,8S,14R)-5-benzyl-4-hydroxy-18-methoxy-7-oxo-13-oxa-2,6-diaza-tricyclo[12.6.1.0^15,20]henicosa-10,15(20),16,18-tetraen-8-yl)-methyl-amide] was 10 to 500 nM.

Turning to `CC(C)C[C@@H]1NC(=O)CCCC=CCO[C@@H]2C[C@H](NC[C@H]1O)c1cc(OC(C)C)ccc12` [Example 79, (1S,4R,5S,15R)-4-hydroxy-5-isobutyl-19-isopropoxy-14-oxa-2,6-diaza-tricyclo[13.6.1.0^16,21]docosa-11,16(21),17,19-tetraen-7-one], the IC50 is over 500 nM. In the case of `O=C1CCCC=CCO[C@@H]2C[C@H](NC[C@@H](O)[C@H](Cc3cc(F)cc(F)c3)N1)c1cc(-c3cc(C(F)(F)F)cc(C(F)(F)F)c3)ccc12` [Example 91, (1S,4R,5S,15R)-19-(3,5-bis-trifluoromethyl-phenyl)-5-(3,5-difluoro-benzyl)-4-hydroxy-14-oxa-2,6-diaza-tricyclo[13.6.1.0^16,21]docosa-11,16(21),17,19-tetraen-7-one], the IC50 was over 500 nM. Under `CCCC[C@H]1CC=CCO[C@@H]2C[C@H](NC[C@@H](O)[C@H](Cc3cc(F)cc(F)c3)NC1=O)c1cc(OC)ccc12` [Example 8, (1S,4R,5S,8S,14R)-8-butyl-5-(3,5-difluoro-benzyl)-4-hydroxy-18-methoxy-13-oxa-2,6-diaza-tricyclo[12.6.1.0^15,20]henicosa-10,15(20),16,18-tetraen-7-one] stands over 500 nM. Regarding `CCCC[C@H](C)C(=O)N(C)[C@H]1CC=CCOC[C@@H](c2ccccc2)NC[C@@H](O)[C@H](Cc2cc(F)cc(F)c2)NC1=O` [Example 18, (S)-2-methyl-hexanoic acid [(3R,6R,7S,10S)-7-(3,5-difluoro-benzyl)-6-hydroxy-9-oxo-3-phenyl-1-oxa-4,8-diaza-cyclotetradec-12-en-10-yl]-methyl-amide], the IC50 was over 500 nM.
